In ChEMBL document CHEMBL5107949, “Design, synthesis, and antibacterial activity of N-(trifluoromethyl)phenyl substituted pyrazole derivatives” (RSC Med Chem, 2021):
≈ marks a conversion by molar mass, not a printed value. Calls of active or inactive are those of the source. No cut-off for these calls is given here.

How the values were obtained:
Enterococcus faecium = assay: Antibacterial activity against Enterococcus faecium clinical isolate 1088925 assessed as inhibition of bacterial growth by CLSI protocol based broth microdilution method; type: functional
Staphylococcus aureus [1] = assay: Inhibition of RNA synthesis in Staphylococcus aureus ATCC 29213 at 0.5 times MIC preincubated for 30 mins followed by [3H]-uridine and measured after 30 mins by [3H]-uridine incorporation based beta scintillation counter analysis; type: functional; details: time 60 min; 1 h
Staphylococcus aureus [2] = assay: Inhibition of lipid synthesis in Staphylococcus aureus ATCC 29213 at MIC preincubated for 30 mins followed by [3H]-glycerol and measured after 50 mins by [3H]-glycerol incorporation based beta scintillation counter analysis; type: functional; details: time 80 min; 1.333 h
[3] = system: Staphylococcus epidermidis; assay: Antibacterial activity against antibiotic resistant Staphylococcus epidermidis ATCC 700296 assessed as inhibition of bacterial growth by CLSI protocol based broth microdilution method; type: functional
Staphylococcus aureus [4] = assay: Inhibition of protein synthesis in Staphylococcus aureus ATCC 29213 at MIC preincubated for 30 mins followed by [3H]-leucine and measured after 40 mins by [3H]-leucine incorporation based beta scintillation counter analysis; type: functional; details: time 70.0 min
Enterococcus faecalis [5] = assay: Antibacterial activity against Enterococcus faecalis clinical isolate 1091563 assessed as inhibition of bacterial growth by CLSI protocol based broth microdilution method; type: functional
Staphylococcus aureus [6] = assay: Antibacterial activity against antibiotic susceptible Staphylococcus aureus ATCC 25923 assessed as inhibition of bacterial growth by CLSI protocol based broth microdilution method; type: functional
Staphylococcus aureus [7] = assay: Antibacterial activity against Staphylococcus aureus clinical isolate 1088626 assessed as inhibition of bacterial growth by CLSI protocol based broth microdilution method; type: functional
[8] = Cytotoxicity against human HEK293 cells reduction in cell viability incubated for 24 hrs by resazurin cell viability assay; type: toxicity, cell-based
Staphylococcus aureus [9] = assay: Inhibition of lipid synthesis in Staphylococcus aureus ATCC 29213 at 0.5 times MIC preincubated for 30 mins followed by [3H]-glycerol and measured after 50 mins by [3H]-glycerol incorporation based beta scintillation counter analysis; type: functional; details: time 80 min; 1.333 h
Enterococcus faecalis [10] = assay: Antibacterial activity against Enterococcus faecalis clinical isolate 1088051 assessed as inhibition of bacterial growth by CLSI protocol based broth microdilution method; type: functional
Staphylococcus aureus [11] = assay: Antibacterial activity against antibiotic resistant Staphylococcus aureus ATCC 33592 assessed as inhibition of bacterial growth by CLSI protocol based broth microdilution method; type: functional
Staphylococcus aureus [12] = assay: Bactericidal activity against Staphylococcus aureus ATCC 700699 assessed as bacteria elimination at 4 times MIC and measured after 6 hrs by time-kill assay; type: functional
Staphylococcus aureus [13] = assay: Antibacterial activity against antibiotic resistant Staphylococcus aureus ATCC 700699 assessed as inhibition of bacterial growth by CLSI protocol based broth microdilution method; type: functional
Enterococcus faecalis [14] = assay: Anti-biofilm activity against Enterococcus faecalis ATCC 29212 assessed as biofilm eradication at 3.125 to 12.5 ug/ml incubated for 24 hrs by Calgary biofilm device assay; type: functional, organism-based; details: dose 3.125-12.5 µg/ml

## O=C(O)c1ccc(-c2nn(-c3ccc(C(F)(F)F)cc3)cc2CNc2ccc(Br)c(C(F)(F)F)c2)cc1
Enterococcus faecium
  MIC: 8 µg/mL (≈ 13.7 µM)
Staphylococcus aureus [1]
  inhibition (INH): 38.1%
Staphylococcus aureus [2]
  inhibition (INH): 88.3%
[3]
  MIC: 1.56 µg/mL (≈ 2.67 µM)
Staphylococcus aureus [4]
  inhibition: 86.1%
Enterococcus faecalis [5]
  MIC: 8 µg/mL (≈ 13.7 µM)
Staphylococcus aureus [6]
  MIC: 0.78 µg/mL (≈ 1.33 µM)
Staphylococcus aureus [7]
  MIC: 4 µg/mL (≈ 6.85 µM)
[8]
  IC50 at 24 h: > 12 µg/mL
Staphylococcus aureus [9]
  inhibition (INH): 57%
Enterococcus faecalis [10]
  MIC: 4 µg/mL (≈ 6.85 µM)
Staphylococcus aureus [11]
  MIC: 0.78 µg/mL (≈ 1.33 µM)
Staphylococcus aureus [12]
  Activity: >99.9%
Staphylococcus aureus [13]
  MIC: 0.78 µg/mL (≈ 1.33 µM)
Enterococcus faecalis [14]
  Activity: Active
